In patent US20260125382A1, “COMPOUNDS FOR INHIBITING OR DEGRADING CDK2 AND/OR CDK9 AND MEDICINAL USE THEREOF” (KOREA RESEARCH INSTITUTE OF CHEMICAL TECHNOLOGY, priority 2022, published 2026):

Experiments:
[1] = biological target: T1, CDK2 (Homo sapiens, UniProt P24941); test: CDK protein degradation activity (Western blotting), CDK2; assay type: cell-based; conditions: MDA-MB-231 cells, 16 hours, Western blot
T1 construct: endogenous in cells; host or cells: MDA-MB-231
Method in brief: (§1)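 Degradation is judged from CDK2 and CDK9 band intensity relative to tubulin and DMSO-treated cells, after 16 h exposure of MDA-MB-231 cells to three compound concentrations (100 nM, 1 μM, 10 μM).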

[2] = biological target: T2, CDK9 (Homo sapiens, UniProt P50750); test: CDK protein degradation activity (Western blotting), CDK9; assay type: cell-based; conditions: MDA-MB-231 cells, 16 hours, Western blot
T2 construct: endogenous in cells; host or cells: MDA-MB-231
T2 sequence (P50750 whole entry): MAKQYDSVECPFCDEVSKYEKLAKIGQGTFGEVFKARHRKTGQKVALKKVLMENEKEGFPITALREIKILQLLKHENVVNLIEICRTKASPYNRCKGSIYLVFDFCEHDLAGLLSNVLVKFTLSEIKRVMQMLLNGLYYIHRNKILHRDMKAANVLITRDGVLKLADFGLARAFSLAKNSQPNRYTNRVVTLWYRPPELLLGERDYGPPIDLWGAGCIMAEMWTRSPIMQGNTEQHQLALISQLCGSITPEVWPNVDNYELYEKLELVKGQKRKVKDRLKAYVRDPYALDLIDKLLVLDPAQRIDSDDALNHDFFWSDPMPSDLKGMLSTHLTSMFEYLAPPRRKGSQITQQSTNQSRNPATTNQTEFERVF
Method in brief: as §1

SMILES	Enzyme degradation CDK2 (% remaining) @ 0.1 μM [1]	Enzyme degradation CDK2 (% remaining) @ 1 μM [1]	Enzyme degradation CDK2 (% remaining) @ 10 μM [1]	Enzyme degradation CDK9 (% remaining) @ 0.1 μM [2]	Enzyme degradation CDK9 (% remaining) @ 1 μM [2]	Enzyme degradation CDK9 (% remaining) @ 10 μM [2]
O=C1CC[C@H](N2C(=O)c3ccc(N4CCC(C(=O)N5CCC(CN6CCN(c7ccc(Nc8ncnc9c8ncn9C8CC(NC(=O)Cc9ccccc9)C8)cc7)CC6)CC5)CC4)cc3C2=O)C(=O)N1 (stereo partly drawn) [Compound 330, N-((1s,3s)-3-(6-((4-(4-((1-(1-(2-(2,6-dioxopiperidin-3-yl)-1,3-dioxoisoindolin-5-yl)piperidin-4-carbonyl)piperidin-4-yl)methyl)piperazin-1-yl)phenyl)amino)-9H-purin-9-yl)cyclobutyl)-2-phenylacetamide]	60%	60%	40%	0/0/0%	0/0/0%	0/0/0%
O=C1CCC(N2C(=O)c3cc(F)c(N4CCC(N5CCN(c6ccc(Nc7ncnc8c7ncn8[C@H]7C[C@@H](NC(=O)Cc8ccccc8)C7)cc6)CC5)CC4)cc3C2=O)C(=O)N1 (stereo partly drawn) [Compound 333, N-((1s,3s)-3-(6-((4-(4-(1-(2-(2,6-dioxopiperidin-3-yl)-6-fluoro-1,3-dioxoisoindolin-5-yl)piperidin-4-yl)piperazin-1-yl)phenyl)amino)-9H-purin-9-yl)cyclobutyl)-2-phenylacetamide]	50%	10%	10%	50%	0%	0%
O=C1CC[C@H](n2nnc3ccc(N4CCC(N5CCN(c6ccc(Nc7ncnc8c7ncn8[C@H]7C[C@@H](NC(=O)Cc8ccccc8)C7)cc6)CC5)CC4)cc3c2=O)C(=O)N1 [Compound 334, N-((1s,3s)-3-(6-((4-(4-(1-(3-(2,6-dioxopiperidin-3-yl)-4-oxo-3,4-dihydrobenzo[d][1,2,3]triazin-6-yl)piperidin-4-yl)piperazin-1-yl)phenyl)amino)-9H-purin-9-yl)cyclobutyl)-2-phenylacetamide]	60%	50%	50%	20%	10%	10%
O=C1CC[C@H](N2C(=O)c3ccc(N4CCN(C5CC6(CCN(c7ccc(Nc8ncnc9c8ncn9[C@H]8C[C@@H](NC(=O)Cc9ccccc9)C8)cc7)CC6)C5)CC4)cc3C2=O)C(=O)N1 [Compound 335, N-((1s,3s)-3-(6-((4-(2-(4-(2-(2,6-dioxopiperidin-3-yl)-1,3-dioxoisoindolin-5-yl)piperazin-1-yl)-7-azaspiro[3.5]nonan-7-yl)phenyl)amino)-9H-purin-9-yl)cyclobutyl)-2-phenylacetamide]	20%	10%	10%	70%	0%	0%
O=C1CC[C@H](N2C(=O)c3cc(F)c(N4CCN(C5CC6(CCN(c7ccc(Nc8ncnc9c8ncn9[C@H]8C[C@@H](NC(=O)Cc9ccccc9)C8)cc7)CC6)C5)CC4)cc3C2=O)C(=O)N1 [Compound 336, N-((1s,3s)-3-(6-((4-(2-(4-(2-(2,6-dioxopiperidin-3-yl)-6-fluoro-1,3-dioxoisoindolin-5-yl)piperazin-1-yl)-7-azaspiro[3.5]nonan-7-yl)phenyl)amino)-9H-purin-9-yl)cyclobutyl)-2-phenylacetamide]	100%	0%	0%	100%	0%	0%
O=C1CC[C@H](n2nnc3ccc(N4CCN(C5CC6(CCN(c7ccc(Nc8ncnc9c8ncn9C8CC(NC(=O)Cc9ccccc9)C8)cc7)CC6)C5)CC4)cc3c2=O)C(=O)N1 (stereo partly drawn) [Compound 337, N-((1s,3s)-3-(6-((4-(2-(4-(3-(2,6-dioxopiperidin-3-yl)-4-oxo-3,4-dihydrobenzo[d][1,2,3]triazin-6-yl)piperazin-1-yl)-7-azaspiro[3.5]nonan-7-yl)phenyl)amino)-9H-purin-9-yl)cyclobutyl)-2-phenylacetamide]	0/0/0%	0/0/0%	0/0/0%	50%	10%	10%
O=C1CC[C@H](N2C(=O)c3ccc(N4CC(C(=O)N5CCC(N6CCN(c7ccc(Nc8ncnc9c8ncn9[C@H]8C[C@@H](NC(=O)Cc9ccccc9)C8)cc7)CC6)CC5)C4)cc3C2=O)C(=O)N1 [Compound 342, N-((1s,3s)-3-(6-((4-(4-(1-(1-(2-(2,6-dioxopiperidin-3-yl)-1,3-dioxoisoindolin-5-yl)azetidin-3-carbonyl)piperidin-4-yl)piperazin-1-yl)phenyl)amino)-9H-purin-9-yl)cyclobutyl)-2-phenylacetamide]	0/0/0%	0/0/0%	0/0/0%	0/0/0%	0/0/0%	0/0/0%
O=C1CC[C@H](N2C(=O)c3ccc(N4CCC(C(=O)N5CCC(N6CCN(c7ccc(Nc8ncnc9c8ncn9[C@H]8C[C@@H](NC(=O)Cc9ccccc9)C8)cc7)CC6)CC5)CC4)cc3C2=O)C(=O)N1 [Compound 343, N-((1s,3s)-3-(6-((4-(4-(1-(1-(2-(2,6-dioxopiperidin-3-yl)-1,3-dioxoisoindolin-5-yl)piperidin-4-carbonyl)piperidin-4-yl)piperazin-1-yl)phenyl)amino)-9H-purin-9-yl)cyclobutyl)-2-phenylacetamide]	30%	30%	40%	10%	0%	0%
O=C1CCC(n2nnc3ccc(N4CC(N5CCN(c6ccc(Nc7ncnc8c7ncn8[C@H]7C[C@@H](NC(=O)Cc8ccccc8)C7)cc6)CC5)C4)cc3c2=O)C(=O)N1 (stereo partly drawn) [Compound 346, N-((1s,3s)-3-(6-((4-(4-(1-(3-(2,6-dioxopiperidin-3-yl)-4-oxo-3,4-dihydrobenzo[d][1,2,3]triazin-6-yl)azetidin-3-yl)piperazin-1-yl)phenyl)amino)-9H-purin-9-yl)cyclobutyl)-2-phenylacetamide]	10%	0%	0%	30/30/30%	30/30/30%	30/30/30%

Continued, values first:

Enzyme degradation CDK2 (% remaining) @ 0.1 μM [1]	Enzyme degradation CDK2 (% remaining) @ 1 μM [1]	Enzyme degradation CDK2 (% remaining) @ 10 μM [1]	Enzyme degradation CDK9 (% remaining) @ 0.1 μM [2]	Enzyme degradation CDK9 (% remaining) @ 1 μM [2]	Enzyme degradation CDK9 (% remaining) @ 10 μM [2]	SMILES
50%	50%	60%	10%	0%	0%	O=C1CC[C@H](N2C(=O)c3ccc(N4CC(C(=O)N5CCC(CN6CCN(c7ccc(Nc8ncnc9c8ncn9C8CC(NC(=O)Cc9ccccc9)C8)cc7)CC6)CC5)C4)cc3C2=O)C(=O)N1 (stereo partly drawn) [Compound 329, N-((1s,3s)-3-(6-((4-(4-((1-(1-(2-(2,6-dioxopiperidin-3-yl)-1,3-dioxoisoindolin-5-yl)azetidin-3-carbonyl)piperidin-4-yl)methyl)piperazin-1-yl)phenyl)amino)-9H-purin-9-yl)cyclobutyl)-2-phenylacetamide]
50%	30%	30%	30%	10%	0%	O=C1CC[C@H](N2C(=O)c3ccc(N4CC(C(=O)N5CCN(CC6CCN(c7ccc(Nc8ncnc9c8ncn9C8CC(NC(=O)Cc9ccccc9)C8)cc7)CC6)CC5)C4)cc3C2=O)C(=O)N1 (stereo partly drawn) [Compound 331, N-((1s,3s)-3-(6-((4-(4-((4-(1-(2-(2,6-dioxopiperidin-3-yl)-1,3-dioxoisoindolin-5-yl)azetidin-3-carbonyl)piperazin-1-yl)methyl)piperidin-1-yl)phenyl)amino)-9H-purin-9-yl)cyclobutyl)-2-phenylacetamide]
10%	0%	0%	50%	0%	0%	O=C1CC[C@H](N2C(=O)c3ccc(N4CCN(CCC5CCN(c6ccc(Nc7ncnc8c7ncn8[C@H]7C[C@@H](NC(=O)Cc8ccccc8)C7)cc6)CC5)CC4)cc3C2=O)C(=O)N1 [Compound 338, N-((1s,3s)-3-(6-((4-(4-(2-(4-(2-(2,6-dioxopiperidin-3-yl)-1,3-dioxoisoindolin-5-yl)piperazin-1-yl)ethyl)piperidin-1-yl)phenyl)amino)-9H-purin-9-yl)cyclobutyl)-2-phenylacetamide]
10%	0%	0%	30%	0%	0%	O=C1CC[C@H](N2C(=O)c3ccc(N4CCN(CCCC5CCN(c6ccc(Nc7ncnc8c7ncn8C7CC(NC(=O)Cc8ccccc8)C7)cc6)CC5)CC4)cc3C2=O)C(=O)N1 (stereo partly drawn) [Compound 347, N-((1s,3s)-3-(6-((4-(4-(3-(4-(2-(2,6-dioxopiperidin-3-yl)-1,3-dioxoisoindolin-5-yl)piperazin-1-yl)propyl)piperidin-1-yl)phenyl)amino)-9H-purin-9-yl)cyclobutyl)-2-phenylacetamide]
